Assay results: patent US9676714B2, “Sulfonylindole derivatives and method for preparing the same” (Daewoong Pharmaceutical Co., Ltd., priority 2013, dated 2017)
pIC50: −log10 of the molar value. Where a name gives a salt, the structure may show the parent alone.

Biological target: T1, proton pump (H+/K+-ATPase) (Sus scrofa, UniProt P19156)
T1 construct: Gastric vesicles were prepared from hog stomach via centrifugal separation; from tissue; host or cells: hog stomach (gastric vesicles, method of Rabon et al. 1988)
Assay: Measurement of inhibitory effects on proton pump (H+/K+-ATPase) activities
Type: biochemical
Details: hog gastric vesicles, K+-specific H+/K+-ATPase activity, Tris-HCl buffer pH 7.4, 37° C. for 40 minutes, malachite green Pi readout
In short: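 Hog gastric vesicles in 60 mmol/l Tris-HCl pH 7.4 with 0.5% DMSO were treated with compounds at room temperature; reaction was started with 10 μl of 10 mmol/l ATP stock. Released Pi was read at 570 nm, K+-specific activity taken as the ±K+ difference. IC50 from 4-parameter logistic fit.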

T1 sequence (P19156 whole entry): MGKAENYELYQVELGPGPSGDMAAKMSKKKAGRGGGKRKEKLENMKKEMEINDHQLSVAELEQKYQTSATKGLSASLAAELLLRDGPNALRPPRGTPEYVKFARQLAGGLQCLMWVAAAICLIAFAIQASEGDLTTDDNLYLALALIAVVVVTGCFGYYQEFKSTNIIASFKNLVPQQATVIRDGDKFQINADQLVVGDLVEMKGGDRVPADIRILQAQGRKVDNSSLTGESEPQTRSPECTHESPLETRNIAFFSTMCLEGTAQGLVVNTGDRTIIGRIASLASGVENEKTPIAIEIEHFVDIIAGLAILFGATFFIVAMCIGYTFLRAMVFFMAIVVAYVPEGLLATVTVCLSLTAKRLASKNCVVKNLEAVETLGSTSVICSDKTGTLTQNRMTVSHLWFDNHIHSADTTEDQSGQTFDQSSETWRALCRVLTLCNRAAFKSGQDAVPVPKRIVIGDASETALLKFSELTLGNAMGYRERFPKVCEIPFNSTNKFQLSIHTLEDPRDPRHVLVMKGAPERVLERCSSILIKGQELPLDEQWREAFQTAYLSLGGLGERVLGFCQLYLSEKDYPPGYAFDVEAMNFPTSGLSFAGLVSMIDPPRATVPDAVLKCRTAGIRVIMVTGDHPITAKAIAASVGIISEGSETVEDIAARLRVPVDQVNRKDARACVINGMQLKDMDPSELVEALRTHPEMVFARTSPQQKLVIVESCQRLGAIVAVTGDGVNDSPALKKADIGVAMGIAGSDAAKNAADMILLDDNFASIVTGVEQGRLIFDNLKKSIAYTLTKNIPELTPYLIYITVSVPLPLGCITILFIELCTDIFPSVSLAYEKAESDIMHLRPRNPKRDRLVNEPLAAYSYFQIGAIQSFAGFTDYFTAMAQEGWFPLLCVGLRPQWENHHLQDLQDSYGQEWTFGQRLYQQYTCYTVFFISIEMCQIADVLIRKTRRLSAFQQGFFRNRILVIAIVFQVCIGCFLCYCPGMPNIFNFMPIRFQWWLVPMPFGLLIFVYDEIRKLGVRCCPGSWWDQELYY
T1 sequence (P18434 whole entry partner): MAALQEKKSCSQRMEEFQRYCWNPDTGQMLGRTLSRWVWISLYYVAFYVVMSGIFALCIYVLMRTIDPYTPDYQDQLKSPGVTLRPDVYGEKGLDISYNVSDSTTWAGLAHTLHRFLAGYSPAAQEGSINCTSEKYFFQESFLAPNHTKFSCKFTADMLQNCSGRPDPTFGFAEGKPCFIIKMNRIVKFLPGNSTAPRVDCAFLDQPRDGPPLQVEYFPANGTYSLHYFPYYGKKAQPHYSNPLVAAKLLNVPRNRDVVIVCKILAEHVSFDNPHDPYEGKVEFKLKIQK

| SMILES | pIC50 |
| --- | --- |
| CNCc1cn(S(=O)(=O)c2cccnc2)c2cc(Nc3c(C)cc(Cl)cc3[N+](=O)[O-])ccc12 [Example 94, N-(4-chloro-2-methyl-6-nitrophenyl)-3-((methylamino)methyl)-1-(pyridin-3-ylsulfonyl)-1H-indol-6-amine hydrochloride] | 6.11 |
| CNCc1cn(S(=O)(=O)c2cccnc2)c2cc(Nc3cccc(Br)c3)ccc12 [Example 5, N-(3-bromophenyl)-3-((methylamino)methyl)-1-(pyridin-3-ylsulfonyl)-1H-indol-6-amine hydrochloride] | 6.10 |
| CNCc1cn(S(=O)(=O)c2cncc(F)c2)c2cc(Nc3ccc(F)cc3Cl)cnc12 [Example 352, N-(2-chloro-4-fluorophenyl)-1-((5-fluoropyridin-3-yl)sulfonyl)-3-((methylamino)methyl)-1H-pyrrolo[3,2-b]pyridin-6-amine hydrochloride] | 6.60 |
| CNCc1cn(S(=O)(=O)c2cccc(OC(F)F)c2)c2cc(Nc3ccc(Cl)cc3C(F)(F)F)ccc12 [Example 177, N-(4-chloro-2-(trifluoromethyl)phenyl)-1-((3-(difluoromethoxy)phenyl)sulfonyl)-3-((methylamino)methyl)-1H-indol-6-amine hydrochloride] | 5.85 |
| CNCc1cn(S(=O)(=O)c2ccc(Cl)c(Cl)c2)c2cc(Nc3ccc(C)cc3F)ccc12 [Example 238, 1-((3,4-dichlorophenyl)sulfonyl)-N-(2-fluoro-4-methylphenyl)-3-((methylamino)methyl)-1H-indol-6-amine hydrochloride] | 5.59 |
| CNCc1cn(S(=O)(=O)c2cccnc2)c2cc(Nc3ccc4ncccc4c3)ccc12 [Example 135, N-3-((methylamino)methyl)-1-(pyridin-3-ylsulfonyl)-1H-indol-6-yl)quinolin-6-amine hydrochloride] | 5.52 |
| CNCc1cn(S(=O)(=O)c2cccnc2)c2cc(Nc3ccnc(Cl)c3Cl)ccc12 [Example 132, N-(2,3-dichloropyridin-4-yl)-3-((methylamino)methyl)-1-(pyridin-3-ylsulfonyl)-1H-indol-6-amine hydrochloride] | 6.14 |
| CNCc1cn(S(=O)(=O)c2cccc(F)c2)c2cc(Nc3ccc(OC(F)(F)F)cc3OC)cnc12 [Example 343, 1-((3-fluorophenyl)sulfonyl)-N-(2-methoxy-4-(trifluoromethoxy)phenyl)-3-((methylamino)methyl)-1H-pyrrolo[3,2-b]pyridin-6-amine hydrochloride] | 5.72 |
| CN(C)C(=O)c1cn(S(=O)(=O)c2cccnc2)c2cc(Nc3ccc(Cl)nc3Cl)ccc12 [Example 331, 6-((2,6-dichloropyridin-3-yl)amino)-N,N-dimethyl-1-(pyridin-3-ylsulfonyl)-1H-indol-3-carboxamide] | 4.15 |
| CNCc1cn(S(=O)(=O)c2cccc(Cl)c2)c2cc(Nc3ccc(C(F)(F)F)cc3Cl)ccc12 [Example 152, N-(2-chloro-4-(trifluoromethyl)phenyl)-1-((3-chlorophenyl)sulfonyl)-3-((methylamino)methyl)-1H-indol-6-amine hydrochloride] | 6.46 |
| CNCc1cn(S(=O)(=O)c2cccc(Cl)c2)c2cc(Nc3cccnc3OC)ccc12 [Example 157, 1-((3-chlorophenyl)sulfonyl)-N-(2-methoxypyridin-3-yl)-3-((methylamino)methyl)-1H-indol-6-amine hydrochloride] | 6.42 |
| CNCc1cn(S(=O)(=O)c2cccnc2)c2cc(Nc3cc(OC)c(Cl)cc3Cl)ccc12 [Example 77, N-(2,4-dichloro-5-methoxyphenyl)-3-((methylamino)methyl)-1-(pyridin-3-ylsulfonyl)-1H-indol-6-amine hydrochloride] | 6.46 |
| CNCc1cn(S(=O)(=O)c2cccnc2)c2cc(Nc3ccc(F)cc3Cl)ccc12 [Example 25, N-(2-chloro-4-fluorophenyl)-3-((methylamino)methyl)-1-(pyridin-3-ylsulfonyl)-1H-indol-6-amine hydrochloride] | 6.80 |
| CNCc1cn(S(=O)(=O)c2cccnc2)c2cc(Nc3cccnc3C)ccc12 [Example 105, 3-((methylamino)methyl)-N-(2-methylpyridin-3-yl)-1-(pyridin-3-ylsulfonyl)-1H-indol-6-amine hydrochloride] | 6.06 |
| CNCc1cn(S(=O)(=O)c2cccc(OC)c2)c2cc(Nc3ccc(C(F)(F)F)cc3Cl)ccc12 [Example 166, N-(2-chloro-4-(trifluoromethyl)phenyl)-1-((3-methoxyphenyl)sulfonyl)-3-((methylamino)methyl)-1H-indol-6-amine hydrochloride] | 6.47 |
| CNCc1cn(S(=O)(=O)c2cccc(F)c2)c2cc(Nc3ccc(Cl)nc3Cl)ncc12 [Example 357, N-(2,6-dichloropyridin-3-yl)-1-((3-fluorophenyl)sulfonyl)-3-((methylamino)methyl)-1H-pyrrolo[3,2-c]pyridin-6-amine hydrochloride] | 6.02 |

| SMILES | pIC50 |
| --- | --- |
| CNCc1cn(S(=O)(=O)c2cccnc2)c2cc(Nc3ccc(C#N)cc3C)ccc12 [Example 36, 3-methyl-4-((3-((methylamino)methyl)-1-(pyridin-3-ylsulfonyl)-1H-indol-6-yl)amino)benzonitrile hydrochloride] | 6.47 |
| CNCc1cn(S(=O)(=O)c2cccnc2)c2cc(Nc3ncccc3C(F)(F)F)ccc12 [Example 101, 3-((methylamino)methyl)-1-(pyridin-3-ylsulfonyl)-N-(3-(trifluoromethyl)pyridin-2-yl)-1H-indol-6-amine hydrochloride] | 5.66 |
| CNCc1cn(S(=O)(=O)c2cccnc2)c2cc(Nc3ccc(Br)cc3OC(F)(F)F)ccc12 [Example 46, N-(4-bromo-2-(trifluoromethoxy)phenyl)-3-((methylamino)methyl)-1-(pyridin-3-ylsulfonyl)-1H-indol-6-amine hydrochloride] | 5.63 |
| CNCc1cn(S(=O)(=O)c2cccc(Cl)c2)c2cc(Nc3ccc(C)nc3F)ccc12 [Example 158, 1-((3-chlorophenyl)sulfonyl)-N-(2-fluoro-6-methylpyridin-3-yl)-3-((methylamino)methyl)-1H-indol-6-amine hydrochloride] | 6.39 |
| CNCc1cn(S(=O)(=O)c2cccnc2)c2cc(Nc3ccc(C(F)(F)F)cc3C)ccc12 [Example 32, N-(2-methyl-4-(trifluoromethyl)phenyl)-3-((methylamino)methyl)-1-(pyridin-3-ylsulfonyl)-1H-indol-6-amine hydrochloride] | 6.09 |
| CNCc1cn(S(=O)(=O)c2cccnc2)c2cc(Nc3ccc(OC)cc3C(F)(F)F)ccc12 [Example 51, N-(4-methoxy-2-(trifluoromethyl)phenyl)-3-((methylamino)methyl)-1-(pyridin-3-ylsulfonyl)-1H-indol-6-amine hydrochloride] | 5.92 |
| CNCc1cn(S(=O)(=O)c2cccnc2)c2cc(Nc3cncc(Br)c3)ccc12 [Example 110, N-(5-bromopyridin-3-yl)-3-((methylamino)methyl)-1-(pyridin-3-ylsulfonyl)-1H-indol-6-amine hydrochloride] | 5.30 |
| CNCc1cn(S(=O)(=O)c2cccnc2)c2cc(-c3cccnc3C(F)(F)F)ccc12 [Example 254, N-methyl-1-(1-(pyridin-3-ylsulfonyl)-6-(2-(trifluoromethyl)pyridin-3-yl)-1H-indol-3-yl)methanamine hydrochloride] | 5.04 |
| CNCc1cn(S(=O)(=O)c2cccc(Cl)c2Cl)c2cc(Nc3ccc(C)cc3F)ccc12 [Example 234, 1-((2,3-dichlorophenyl)sulfonyl)-N-(2-fluoro-4-methylphenyl)-3-((methylamino)methyl)-1H-indol-6-amine hydrochloride] | 5.83 |
| CNCc1cn(S(=O)(=O)c2cccnc2)c2cc(Cc3ccc(OC(F)(F)F)cc3F)ccc12 [Example 279, 1-(6-(2-fluoro-4-(trifluoromethoxy)benzyl)-1-(pyridin-3-ylsulfonyl)-1H-indol-3-yl)-N-methylmethanamine hydrochloride] | 5.66 |
| CNCc1cn(S(=O)(=O)c2cccnc2)c2cc(Nc3ccc(F)cc3Cl)cnc12 [Example 347, N-(2-chloro-4-fluorophenyl)-3-((methylamino)methyl)-1-(pyridin-3-ylsulfonyl)-1H-pyrrolo[3,2-b]pyridin-6-amine hydrochloride] | 6.74 |
| CNCc1cn(S(=O)(=O)c2cncc(F)c2)c2cc(Nc3ccc(C)cc3Cl)cnc12 [Example 350, N-(2-chloro-4-methylphenyl)-1-((5-fluoropyridin-3-yl)sulfonyl)-3-((methylamino)methyl)-1H-pyrrolo[3,2-b]pyridin-6-amine hydrochloride] | 6.59 |
| CNCc1cn(S(=O)(=O)c2cccnc2)c2cc(-c3cccc(NC(C)=O)c3)ccc12 [Example 245, N-(3-(3-((methylamino)methyl)-1-(pyridin-3-ylsulfonyl)-1H-indol-6-yl)phenyl)acetamide] | 4.89 |
| CNCc1cn(S(=O)(=O)c2cccnc2)c2cc(Cc3ccc(OC)nc3Cl)ccc12 [Example 291, 1-(6-((2-chloro-6-methoxypyridin-3-yl)methyl)-1-(pyridin-3-ylsulfonyl)-1H-indol-3-yl)-N-methylmethanamine hydrochloride] | 6.18 |
| CN(C)C(=O)c1cn(S(=O)(=O)c2cccnc2)c2cc(Nc3ccc(C(F)(F)F)cc3Cl)ccc12 [Example 325, 6-((2-chloro-4-(trifluoromethyl)phenyl)amino)-N,N-dimethyl-1-(pyridin-3-ylsulfonyl)-1H-indol-3-carboxamide] | 4.17 |
| CNCc1cn(S(=O)(=O)c2cccc(OC(F)F)c2)c2cc(Cc3ccc(OC)nc3Cl)ccc12 [Example 296, 1-(6-((2-chloro-6-methoxypyridin-3-yl)methyl)-1-((3-(difluoromethoxy)phenyl)sulfonyl)-1H-indol-3-yl)-N-methylmethanamine] | 6.03 |
